We go through 1 compound from patent publication US20210101928A1 (Sage Therapeutics, Inc., priority 2017, published 2021).

For this experiment, the target named is GABAA receptor ([35S]-TBPS binding, rat brain cortical membranes). The experiment can be described thus: Steroid inhibition of [35S]-TBPS binding. Conditions: Table III-1 (biological data), 3 nM [35S]-TBPS, in the presence of 5 mM GABA, read-out: TBPS IC50. The method in brief:
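Sprague-Dawley rat cortical P2 membranes incubated 90 min at room temperature with 3 nM [35S]-TBPS, […] GABA and test compound (0.5% DMSO) in 200 mM NaCl/50 mM Na-K phosphate pH 7.4. Nonspecific binding with […] TBPS; filtration and scintillation counting; IC50 and Imax from nonlinear fits.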

One may read the IC50 as the concentration that inhibits the measured activity by half.

Regarding `COC[C@]12CC[C@H]3[C@@H](CC[C@@H]4C[C@](C)(O)CC[C@@H]43)[C@@H]1CC[C@@H]2C(=O)Cn1cc(C#N)cn1` [III-C13, 1-(2-((3R,5R,8R,9R,10S,13R,14S,17S)-3-hydroxy-13-(methoxymethyl)-3-methylhexadecahydro-1H-cyclopenta[a]phenanthren-17-yl)-2-oxoethyl)-1H-pyrazole-4-carbonitrile], the half-inhibitory concentration (IC50) was under 10 nM.
